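Grown in 96-well plates, cells were treated for 48 hours with each compound at five concentrations. Insufficient inhibition: endpoint recorded as highest concentration tested. GI50 marks 50% less growth. The concentration for full growth arrest is given as TGI.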
Tests used:
Assay in all cases: NCI tumour cell line growth inhibition, 48 h
[1] = test system: EKVX NSCLC
[2] = test system: HOP-92 NSCLC
[3] = test system: HT29 colon
[4] = test system: M14 melanoma
[5] = test system: OVCAR-3 ovarian
[6] = test system: SF-295 CNS
[7] = test system: SN12C renal
[8] = test system: SW-620 colon
[9] = test system: LOX IMVI melanoma
[10] = test system: MCF7 breast

Structure (SMILES)	TGI [1] [µM]	TGI [2] [µM]	TGI [3] [µM]	TGI [4] [µM]	TGI [5] [µM]	TGI [6] [µM]	TGI [7] [µM]	TGI [8] [µM]	TGI [9] [µM]	TGI [10] [µM]	GI50 [1] [µM]	GI50 [3] [µM]	GI50 [9] [µM]	GI50 [4] [µM]	GI50 [10] [µM]	GI50 [5] [µM]	GI50 [6] [µM]	GI50 [8] [µM]	GI50 [2] [µM]	GI50 [7] [µM]
O=C1C(Cl)N(c2ccccc2Cl)C1c1c[nH]c2ccccc12 (stereo unspecified)	> 100	> 100	> 100	> 100	> 100	> 100	> 100	> 100												
Oc1ccc(C(=C(Br)c2ccccc2)c2ccc(O)cc2)cc1	26.2	22.5	4.78	15.3	8.99	25.6	18.9	14.9	17	12.4										
CN1C(=O)CC(=O)N1/C(=C/c1ccccc1)c1ccccc1	> 100	> 100	> 100	> 100	> 100	> 100	> 100	> 100	31.2	> 100										
O=C1c2cc3c(cc2-c2c1c1ccc(Cl)cc1c(=O)n2C[C@H](O)CO)OCO3	1.52		> 100	0.244	0.316	0.341		1.02	0.0781	0.759	0.153	0.0348	0.0122	0.025	< 0.01	0.0615	< 0.01	0.02		
CSCCC(C(=O)O)N(C)C (stereo unspecified)	> 100	> 100	> 100	> 100	> 100	> 100	> 100	> 100	> 100	> 100										
O=C1c2cc(O)c(O)cc2O[C@H](c2ccc(O)c(O)c2)[C@H]1O	> 100	> 100	> 100	> 100	> 100	> 100	> 100	> 100	> 100	> 100										
C=C(C#N)C(=O)OCC(CC)CC.C=C(C#N)C(=O)OCC(CC)CC.CS(C)=O.CS(C)=O.Nc1c(N=Nc2ccc(-c3ccc(N=Nc4cc(S(=O)(=O)[O-])c5ccccc5c4N)cc3)cc2)cc(S(=O)(=O)[O-])c2ccccc12.[Pt+2]	63.3	45.4	> 69.7		> 58	> 100	> 100	46.2	> 84.9	> 100	26	27.2	35		24.2	25.9	98.4	25	19.6	57.7
C=CCNC(=O)C(C)C1CCC2(C)C=CC(=O)C(C)=C2C1O (stereo unspecified)	> 100	> 100	> 100		> 100	> 100	> 100	> 100	> 100	> 100										

Source: PubChem BioAssay (NCI)
